Biological target: T1, Full-length USP19 (Homo sapiens, UniProt O94966)
T1 construct: Full-length USP19 was purchased from Boston Biochem (E-576); purchased Boston Biochem E-576
T1 sequence (O94966 1-1318): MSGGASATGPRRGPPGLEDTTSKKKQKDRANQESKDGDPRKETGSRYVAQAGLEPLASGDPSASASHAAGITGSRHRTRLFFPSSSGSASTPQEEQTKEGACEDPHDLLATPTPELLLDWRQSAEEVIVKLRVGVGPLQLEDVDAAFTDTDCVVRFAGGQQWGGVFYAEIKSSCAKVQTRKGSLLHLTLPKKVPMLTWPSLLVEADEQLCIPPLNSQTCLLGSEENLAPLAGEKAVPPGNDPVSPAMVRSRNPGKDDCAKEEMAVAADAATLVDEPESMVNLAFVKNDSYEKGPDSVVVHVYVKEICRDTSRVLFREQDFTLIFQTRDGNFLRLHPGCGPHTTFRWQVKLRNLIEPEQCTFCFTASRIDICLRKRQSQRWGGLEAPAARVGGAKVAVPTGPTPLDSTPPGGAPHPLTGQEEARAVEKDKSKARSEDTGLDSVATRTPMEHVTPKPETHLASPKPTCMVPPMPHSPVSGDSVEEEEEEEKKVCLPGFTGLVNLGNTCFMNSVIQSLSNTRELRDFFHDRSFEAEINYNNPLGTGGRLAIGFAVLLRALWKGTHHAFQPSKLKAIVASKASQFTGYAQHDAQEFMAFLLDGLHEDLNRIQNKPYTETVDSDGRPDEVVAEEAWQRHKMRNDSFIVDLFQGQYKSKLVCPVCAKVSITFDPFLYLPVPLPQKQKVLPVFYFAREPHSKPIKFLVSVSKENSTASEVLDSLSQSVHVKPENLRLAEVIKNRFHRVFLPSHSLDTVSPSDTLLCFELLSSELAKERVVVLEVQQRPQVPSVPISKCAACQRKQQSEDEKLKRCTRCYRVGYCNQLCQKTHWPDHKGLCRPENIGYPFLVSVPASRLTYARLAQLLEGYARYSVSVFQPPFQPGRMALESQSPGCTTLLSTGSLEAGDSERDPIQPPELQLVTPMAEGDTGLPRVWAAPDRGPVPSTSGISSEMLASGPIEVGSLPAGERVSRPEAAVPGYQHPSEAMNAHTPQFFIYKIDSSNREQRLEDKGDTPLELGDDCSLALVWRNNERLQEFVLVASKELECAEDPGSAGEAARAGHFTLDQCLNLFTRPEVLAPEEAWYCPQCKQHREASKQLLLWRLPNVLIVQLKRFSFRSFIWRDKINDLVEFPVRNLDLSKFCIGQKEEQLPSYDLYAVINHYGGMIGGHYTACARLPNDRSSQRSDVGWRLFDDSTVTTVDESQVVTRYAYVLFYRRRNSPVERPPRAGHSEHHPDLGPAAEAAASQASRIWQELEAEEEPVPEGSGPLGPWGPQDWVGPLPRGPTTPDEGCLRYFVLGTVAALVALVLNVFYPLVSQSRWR
Test: USP19 fluorescence polarisation (FP) assay, Ubiquitin-Lys-TAMRA substrate
Type: biochemical
Settings: average of at least two duplicate experiments
In short: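 Full-length human USP19 (added at 2.5 nM) was preincubated 30 min at RT with inhibitor (serial dilutions 200 μM to 2 μM) in 50 mM HEPES pH 7.4, 150 mM NaCl, 5 mM DTT, 0.05% BSA, 0.05% CHAPS. Ubiquitin-Lys-TAMRA isopeptide substrate (added at 500 nM) started the reaction, and FP (Ex 530/Em 575 nm) was read every 15 min over 90 min. IC50 came from non-linear regression of signal normalised to no-compound control, averaged over at least two duplicate experiments.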

Question: O=C(N1CC[C@@H](Cn2cnc3ccc(F)cc3c2=O)C2(CCCC2)C1)N1CC[C@@H](NCC(F)F)C[C@H]1c1cc(F)ccc1F [Example 157, 3-(((R)-7-((2S,4R)-4-((2,2-Difluoroethyl)amino)-2-(2,5-difluorophenyl)piperidine-1-carbonyl)-7-azaspiro[4.5]decan-10-yl)methyl)-6-fluoroquinazolin-4(3H)-one] was tested. Which IC50 did it give?
Answer: < 10 nM

Question: With CN[C@@H]1CCN(C(=O)N2CC[C@@H](Cn3cnc(-c4ccccc4)cc3=O)C3(CCCC3)C2)[C@H](c2ccc(F)cc2F)C1 [Example 94, 3-(((R)-7-((2S,4R)-2-(2,4-Difluorophenyl)-4-(methylamino)piperidine-1-carbonyl)-7-azaspiro[4.5]decan-10-yl)methyl)-6-phenylpyrimidin-4(3H)-one] as the compound, how does the IC50 read?
Answer: < 10 nM

Question: CN[C@@H]1CCN(C(=O)N2CC[C@@H](Cn3ccc(-c4ccccc4OC)cc3=O)C3(CCCC3)C2)[C@H](c2ccc(F)cc2)C1 [Example 120, 1-(((R)-7-((2S,4R)-2-(4-Fluorophenyl)-4-(methylamino)piperidine-1-carbonyl)-7-azaspiro[4.5]decan-10-yl)methyl)-4-(2-methoxyphenyl)pyridin-2(1H)-one] was tested. Which IC50 did it give?
Answer: < 10 nM

Question: With O=C(N1CC[C@@H](Cn2cnc(-c3ccccc3)cc2=O)C2(CCCC2)C1)N1CC[C@@H](NCCO)C[C@H]1c1ccccc1 [Example 161, 3-(((R)-7-((2S,4R)-4-((2-Hydroxyethyl)amino)-2-phenylpiperidine-1-carbonyl)-7-azaspiro[4.5]decan-10-yl)methyl)-6-phenylpyrimidin-4(3H)-one] as the compound, how does the IC50 read?
Answer: < 10 nM

Question: Which IC50 does the source give for O=C(N1CCC(Cn2ccc(-c3ccccc3)cc2=O)CC1)N1CCNC[C@H]1c1ccccc1 [Example 6, (R)-4-Phenyl-1-((1-(2-phenylpiperazine-1-carbonyl)piperidin-4-yl)methyl)pyridin-2(1H)-one] here?
Answer: 100 to 1000 nM

Question: Which IC50 does the source give for O=C(N[C@@H]1CCN(C(=O)N2CC[C@@H](Cn3cnc(-c4ccccc4)cc3=O)C3(CCCC3)C2)[C@H](c2cc(F)ccc2F)C1)C1CC1 [Example 164, N-((2S,4R)-2-(2,5-Difluorophenyl)-1-((R)-10-((6-oxo-4-phenylpyrimidin-1(6H)-yl)methyl)-7-azaspiro[4.5]decane-7-carbonyl)piperidin-4-yl)cyclopropanecarbox-amide] here?
Answer: < 10 nM

Question: How did the IC50 turn out when O=C(N[C@@H]1CCN(C(=O)N2CC[C@@H](Cn3ccc(-c4ccccc4)cc3=O)C3(CCCC3)C2)[C@H](c2ccccc2)C1)C1CC1 [Example 96, N-((2S,4R)-1-((R)-10-((2-Oxo-4-phenylpyridin-1(2H)-yl)methyl)-7-azaspiro[4.5]decane-7-carbonyl)-2-phenylpiperidin-4-yl)cyclopropanecarboxamide] was run?
Answer: 10 to 100 nM

Question: CC1(C)CN(C(=O)N2CC[C@@H](N)C[C@H]2c2ccccc2)CCC1Cn1ccc(-c2ccccc2)cc1=O (stereo partly drawn) [Example 21, 1-((1-((2S,4R)-4-Amino-2-phenylpiperidine-1-carbonyl)-3,3-dimethylpiperidin-4-yl)methyl)-4-phenylpyridin-2(1H)-one] was tested. Which IC50 did it give?
Answer: < 10 nM

Question: Which IC50 does the source give for CN[C@@H]1CCN(C(=O)N2CC[C@@H](Cn3ccc(-c4ccccc4F)cc3=O)C3(CCCC3)C2)[C@H](c2ccccc2)C1 [Example 55, 4-(2-Fluorophenyl)-1-(((R)-7-((2S,4R)-4-(methylamino)-2-phenylpiperidine-1-carbonyl)-7-azaspiro[4.5]decan-10-yl)methyl)pyridin-2(1H)-one] here?
Answer: < 10 nM

Question: For COc1ccccc1-c1ccn(C[C@@H]2CCN(C(=O)N3CC[C@@H](N)C[C@H]3c3cc(F)ccc3F)CC23CCCC3)c(=O)c1 [Example 89, 1-(((R)-7-((2S,4R)-4-Amino-2-(2,5-difluorophenyl)piperidine-1-carbonyl)-7-azaspiro[4.5]decan-10-yl)methyl)-4-(2-methoxyphenyl)pyridin-2(1H)-one], which IC50 is on record?
Answer: < 10 nM

Reference: patent US20240327382A1 (ALMAC DISCOVERY LIMITED, priority 2021, published 2024)
